From patent US4721775A, “Effective peptides related to the luteinizing hormone releasing hormone from L-amino acids” (Board of Regents, The University of Texas System, priority 1985, dated 1988)
“And” between values parts separate entries of the source, which are not always exact repeats. Identical values can stand only once.

Experiments:
[1] = test system: ovulation; conditions: 250 ng; rats; cited from earlier work
[2] = test system: release of LH; experiment: Release of LH in rats after sc injection; assay type: in vivo
Description: (§1) The data on the release of LH and FSH in rats by modifications of LHRH with one structural change are in Table II.
(§2) Exclusive of the salmon-LHRH, only one of the six decapeptides with two structural changes had significant activity.

[3] = test system: release of FSH; experiment: Release of FSH in rats after sc injection; assay type: in vivo
Description: as §1, §2

[4] = test system: rat anterior pituitary cells in primary culture; conditions: in vitro, rat pituitary cells; Sherwood et al. (a), Miyamoto et al. (b); cited from earlier work
[5] = test system: rat pituitary cells; conditions: in vitro, rat pituitary cells; Miyamoto et al. (b); cited from earlier work
[6] = test system: release of FSH; conditions: comparison with purified hypothalamic fractions; cited from earlier work
[7] = test system: release of LH; conditions: at 1000 and 5000 ng; cited from earlier work
[8] = test system: release of FSH; conditions: at 1000 and 5000 ng; cited from earlier work
[9] = 15 min. after sc injection, 50 ng, LHRH = 100
[10] = 15 min. after sc injection, 100 ng, LHRH = 100
[11] = 15 min. after sc injection, 100 ng, experiment marked *
[12] = 15 min. after sc injection, 100 ng, experiment marked *, LHRH* = 100
[13] = 15 min. after sc injection, 1000 ng, LHRH = 100
[14] = 15 min. after sc injection, 1000 ng, experiment marked *
[15] = 30 min. after sc injection, 50 ng, LHRH = 100
[16] = 30 min. after sc injection, 100 ng, LHRH = 100
[17] = 30 min. after sc injection, 1000 ng, LHRH = 100
[18] = 60 min. after sc injection, 300 ng, LHRH = 100
[19] = 60 min. after sc injection, 3000 ng, LHRH = 100
[20] = release 15 min. after sc injection, dosage of peptide 50 ng
[21] = release 15 min. after sc injection, dosage of peptide 100 ng
[22] = release 15 min. after sc injection, dosage of peptide 1000 ng
[23] = release 30 min. after sc injection, dosage of peptide 50 ng
[24] = release 30 min. after sc injection, dosage of peptide 100 ng
[25] = release 60 min. after sc injection, dosage of peptide 300 ng
[26] = release 60 min. after sc injection, dosage of peptide 3000 ng
[27] = sc injection, dose and time as stated in the source

Molecule: [N-Ac-D-2-Nal^1, D-pClPhe^2, D-3-Pal^3, D-Arg^6, Trp^7, D-Ala10 ]-LHRH
- antiovulatory activity [1]: ca. 90%

Molecule: CC(C)C[C@H](NC(=O)CNC(=O)[C@H](Cc1ccc(O)cc1)NC(=O)[C@H](CO)NC(=O)[C@H](Cc1c[nH]c2ccccc12)NC(=O)[C@H](Cc1c[nH]cn1)NC(=O)[C@@H]1CCC(=O)N1)C(=O)N[C@@H](CCCNC(=N)N)C(=O)N1CCC[C@H]1C(=O)NCC(N)=O [LHRH, pGlu--His--Trp--Ser--Tyr--Gly--Leu--Arg--Pro--Gly--NH2, reference compound]
- LH % change [2, 9]: 100%
- LH % change [2, 10]: 100%
- LH [2, 11]: 21 ng/mL
- LH % change [2, 12]: 100%
- LH % change [2, 13]: 100%
- LH [2, 14]: 39 ng/mL
- LH % change ([2]; 15 min. after sc injection, 1000 ng, experiment marked *, LHRH* = 100): 100%
- LH % change [2, 15]: 100%
- LH % change [2, 16]: 100%
- LH % change [2, 17]: 100%
- LH % change [2, 18]: 100%
- LH % change [2, 19]: 100%
- LH [2, 20]: 16 ng/mL
- LH [2, 21]: 24 ng/mL
- LH [2, 22]: 57 ng/mL
- LH [2, 23]: 18 ng/mL
- LH [2, 24]: 11 ng/mL
- LH [2, 25]: 11 ng/mL and 17 ng/mL
- LH [2, 26]: 82 ng/mL and 113 ng/mL
- FSH % change [3, 9]: 100%
- FSH % change [3, 10]: 100%
- FSH [3, 11]: 455 ng/mL
- FSH % change [3, 12]: 100%
- FSH % change [3, 13]: 100%
- FSH [3, 14]: 576 ng/mL
- FSH % change [3, 15]: 100%
- FSH % change [3, 16]: 100%
- FSH % change [3, 17]: 100%
- FSH % change [3, 18]: 100%
- FSH % change [3, 19]: 100%
- FSH [3, 20]: 550 ng/mL
- FSH [3, 21]: 465 ng/mL
- FSH [3, 22]: 483 ng/mL
- FSH [3, 23]: 515 ng/mL
- FSH [3, 24]: 494 ng/mL and 434 ng/mL
- FSH ([3]; release 30 min. after sc injection, dosage of peptide 1000 ng): 691 ng/mL and 1010 ng/mL
- FSH [3, 25]: 596 ng/mL and 554 ng/mL
- FSH [3, 26]: 1173 ng/mL and 1501 ng/mL
- activity (potency) to release LH relative to P/O LHRH [4]: 100%
- activity to release FSH relative to P/O LHRH [5]: 100%
- FSH released [6]: ca. 18,000 ng/ml

Molecule: CC(C)C[C@H](NC(=O)CNC(=O)[C@H](Cc1ccc(O)cc1)NC(=O)[C@H](CO)NC(=O)[C@H](Cc1c[nH]c2ccccc12)NC(=O)[C@H](Cc1c[nH]cn1)NC(=O)[C@@H]1CCC(=O)N1)C(=O)N[C@@H](CC(C)C)C(=O)N1CCC[C@H]1C(=O)NCC(N)=O [[Leu^8]--LHRH, p-Glu His Trp Ser Tyr Gly Leu Leu Pro Gly-NH2, reference compound]
- release of LH compared with LHRH [2, 27]: relatively low activities
- release of FSH compared with LHRH [3, 27]: relatively low activities
- activity for LH release [7]: Inactive
- activity for FSH release [8]: Inactive
